Values joined by “and” are separate entries in the source; they are usually repeats but may differ in a detail not shown here. Equal values may be shown once.
Tested on: 876862-298-R-J1-PDC complex spheroids, viability % test/control
Experiment: Anticancer human tumor 876862-298-R-J1-PDC patient-derived endometrial carcinoma cell line growth inhibition [CLK]
Conditions: for viability, T/C: stronger effect = lower value
Method in brief: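 Multi-cell-type spheroids combined patient-derived tumor cells with HUVEC endothelial cells and human mesenchymal stem cells. Paired agents were dosed in half-log steps down from about clinical Cmax, or from 10 microM where Cmax was unknown.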

[1] = curve of first compound, second compound 0.0316 µM
[2] = curve of first compound, second compound 0.1 µM
[3] = curve of first compound, second compound 0.316 µM
[4] = curve of first compound, second compound 1 µM
[5] = curve of first compound, second compound 3.16 µM
[6] = curve of first compound, second compound 10 µM
[7] = second compound 0.0316 µM, first compound 0.0316 µM
[8] = second compound 0.0316 µM, first compound 0.1 µM
[9] = second compound 0.0316 µM, first compound 0.316 µM
[10] = second compound 0.0316 µM, first compound 1 µM
[11] = second compound 0.0316 µM, first compound 3.16 µM
[12] = second compound 0.0316 µM, first compound 10 µM
[13] = second compound 0.1 µM, first compound 0.0316 µM
[14] = second compound 0.1 µM, first compound 0.1 µM
[15] = second compound 0.1 µM, first compound 0.316 µM
[16] = second compound 0.1 µM, first compound 1 µM
[17] = second compound 0.1 µM, first compound 3.16 µM
[18] = second compound 0.1 µM, first compound 10 µM
[19] = second compound 0.316 µM, first compound 0.0316 µM
[20] = second compound 0.316 µM, first compound 0.1 µM
[21] = second compound 0.316 µM, first compound 0.316 µM
[22] = second compound 0.316 µM, first compound 1 µM
[23] = second compound 0.316 µM, first compound 3.16 µM
[24] = second compound 0.316 µM, first compound 10 µM
[25] = second compound 1 µM, first compound 0.0316 µM
[26] = second compound 1 µM, first compound 0.1 µM
[27] = second compound 1 µM, first compound 0.316 µM
[28] = second compound 1 µM, first compound 1 µM
[29] = second compound 1 µM, first compound 3.16 µM
[30] = second compound 1 µM, first compound 10 µM
[31] = second compound 3.16 µM, first compound 0.0316 µM
[32] = second compound 3.16 µM, first compound 0.1 µM
[33] = second compound 3.16 µM, first compound 0.316 µM
[34] = second compound 3.16 µM, first compound 1 µM
[35] = second compound 3.16 µM, first compound 3.16 µM
[36] = second compound 3.16 µM, first compound 10 µM
[37] = second compound 10 µM, first compound 0.0316 µM
[38] = second compound 10 µM, first compound 0.1 µM
[39] = second compound 10 µM, first compound 0.316 µM
[40] = second compound 10 µM, first compound 1 µM
[41] = second compound 10 µM, first compound 3.16 µM
[42] = second compound 10 µM, first compound 10 µM
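Further: spheroids exposed to drugs for 7 days before readout.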
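Wherever viability, T/C is given: 100% = DMSO vehicle control wells.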

CC(C)CC(NC(=O)C(Cc1ccccc1)NC(=O)c1cnccn1)B(O)O (stereo unspecified)
viability, T/C (compound 0.000949 µM): 116% and 88.5% | viability, T/C (compound 0.003 µM): 13.2% and 7.38% | viability, T/C (compound 0.00949 µM): 0.57% and 0.51% | viability, T/C (compound 0.03 µM): 0.45% and 0.53% | viability, T/C (compound 0.0949 µM): 0.3% and 0.59% | viability, T/C (compound 0.3 µM): 0.2% and 0.9% | IC50 (curve of compound): 1.99 nM and 1.64 nM

Nc1ccn(C2OC(CO)C(O)C2(F)F)c(=O)n1 (stereo unspecified) + CNC(=O)c1ccc(Nc2nc(OC3CCCC3)c3c(-c4ccc5nc(C)oc5c4)c[nH]c3n2)c(OC)c1
IC50 [1]: < 31.6 nM | IC50 [2]: < 31.6 nM | IC50 [3]: < 31.6 nM | IC50 [4]: < 31.6 nM | IC50 [5]: < 31.6 nM | IC50 [6]: < 31.6 nM | viability, T/C [7]: 15.1% | viability, T/C [8]: 7.66% | viability, T/C [9]: 9.02% | viability, T/C [10]: 6.2% | viability, T/C [11]: 7.72% | viability, T/C [12]: 9.97% | viability, T/C [13]: 16.5% | viability, T/C [14]: 9.17% | viability, T/C [15]: 9.31% | viability, T/C [16]: 7.24% | viability, T/C [17]: 7.42% | viability, T/C [18]: 10.1% | viability, T/C [19]: 17.7% | viability, T/C [20]: 7.67% | viability, T/C [21]: 7.58% | viability, T/C [22]: 5.78% | viability, T/C [23]: 7.22% | viability, T/C [24]: 6.26% | viability, T/C [25]: 14.6% | viability, T/C [26]: 8.47% | viability, T/C [27]: 6.7% | viability, T/C [28]: 6.04% | viability, T/C [29]: 6.8% | viability, T/C [30]: 5.73% | viability, T/C [31]: 10.5% | viability, T/C [32]: 5.98% | viability, T/C [33]: 5.8% | viability, T/C [34]: 6.15% | viability, T/C [35]: 4.91% | viability, T/C [36]: 5.13% | viability, T/C [37]: 8.61% | viability, T/C [38]: 5.73% | viability, T/C [39]: 5.74% | viability, T/C [40]: 5.44% | viability, T/C [41]: 6.11% | viability, T/C [42]: 3.96%

CCCS(=O)(=O)Nc1ccc(F)c(C(=O)c2c[nH]c3ncc(-c4ccc(Cl)cc4)cc23)c1F + CNC(=O)c1ccc(Nc2nc(OC3CCCC3)c3c(-c4ccc5nc(C)oc5c4)c[nH]c3n2)c(OC)c1
IC50 [1]: 7040 nM | IC50 [2]: < 31.6 nM | IC50 [3]: < 31.6 nM | IC50 [4]: < 31.6 nM | IC50 [5]: < 31.6 nM | IC50 [6]: < 31.6 nM | viability, T/C [7]: 72.1% | viability, T/C [8]: 89.1% | viability, T/C [9]: 88.1% | viability, T/C [10]: 90.9% | viability, T/C [11]: 68.2% | viability, T/C [12]: 42% | viability, T/C [13]: 40.2% | viability, T/C [14]: 54.9% | viability, T/C [15]: 50.5% | viability, T/C [16]: 49.2% | viability, T/C [17]: 40.4% | viability, T/C [18]: 26.6% | viability, T/C [19]: 45.6% | viability, T/C [20]: 41.2% | viability, T/C [21]: 43.8% | viability, T/C [22]: 40.1% | viability, T/C [23]: 31.7% | viability, T/C [24]: 18.1% | viability, T/C [25]: 36.9% | viability, T/C [26]: 32% | viability, T/C [27]: 30.7% | viability, T/C [28]: 32.7% | viability, T/C [29]: 22.4% | viability, T/C [30]: 12.7% | viability, T/C [31]: 23.5% | viability, T/C [32]: 25.1% | viability, T/C [33]: 21.2% | viability, T/C [34]: 26.1% | viability, T/C [35]: 19.1% | viability, T/C [36]: 10.8% | viability, T/C [37]: 23.1% | viability, T/C [38]: 21.4% | viability, T/C [39]: 21% | viability, T/C [40]: 22.3% | viability, T/C [41]: 15.9% | viability, T/C [42]: 10.4%

From PubChem BioAssay AID2060607 (Molecular Pharmacology Branch, DTP, NCI, 2025)
